Patent publication US10603298B2, “Succinate dehydrogenase inhibitors (SDHi's)” (Medical Research Council, priority 2014, dated 2020)
“Also recorded” adds a separate entry of the source.

Legend:
[1] = system: adult primary rat cardiomyocytes; test: ROS production (DHE oxidation) in adult primary cardiomyocytes during in situ IR; format: cell-based; settings: 40 min ischaemia then reoxygenation, 4 mM in ischaemic buffer
Procedure: FIG. 13: Tracking cardiomyocytes ROS levels in primary cardiomyocytes during in situ IR. Primary rat cardiomyocytes were subjected to 40 min ischaemia and reoxygenation with ROS levels tracked throughout the experiment by ratiometric measurement of dihydroethidium (DHE) oxidation. […] Representative traces of each condition are shown. The highlighted window indicates the period of the experiment expanded in detail in FIG. 3.a.
(§1) Male Sprague-Dawley rats (300-370 g) were terminally anaesthetised via IP injections of 200 mg/kg sodium pentobarbitone and 330 U/kg heparin. Hearts were excised and retrograde perfused on a Langendorff-perfusion system with 13 mL/min oxygenated KH buffer at 37° C. Cells were isolated by collagenase digestion using standard methods^41. […]
(§2) Cells were imaged within 36 hours of plating. […] Simulated ischaemia was achieved by replacing the buffer with a pre-gassed, hypoxic recording buffer simulating ischaemia (as above but lacking glucose and containing 10 mM sodium lactate, 14.8 mM KCl; pH 6.4) and by covering the heated stage with a transparent, gas-impermeant lid, forming a small chamber into which argon was forced to maintain hypoxia. pO2 was routinely measured as <2.0 mm Hg during simulated ischaemia. […]
(§3) ROS production was estimated by oxidation of DHE. […] All measured cell parameters were analysed with Fiji image processing software.

[2] = system: adult primary rat cardiomyocytes; test: NAD(P)H autofluorescence in primary cardiomyocytes during in situ IR; format: cell-based; settings: 4 mM in ischaemic buffer
Procedure: FIG. 14: Tracking NADH reduction state in primary cardiomyocytes during in situ IR. Primary rat cardiomyocytes were subjected to 40 min ischaemia and reoxygenation and NADH reduction state was tracked throughout the experiment by measurement of NAD(P)H autofluorescence. […] Representative traces of each condition are shown. The highlighted window indicates the period of the experiment expanded in detail in FIG. 3c.
as §1, §2, §3

[3] = system: C2C12 myoblasts; test: Succinate-dependent mitochondrial superoxide production (MitoSOX) in myoblasts; format: cell-based, mouse; settings: C2C12 cells, normoxic, mitochondria hyperpolarised with oligomycin
Procedure: C2C12 myoblasts were seeded in 35 mm glass bottom culture dishes (MatTek) and incubated for 24 h in low glucose (1 g/L) DMEM. 2 h prior to imaging DMEM was removed, and replaced with imaging buffer (132 mM NaCl; […]; 4.2 mM KCl; 1 mM MgCl2 1 mM CaCl2 adjusted to pH 7.4 with Tris base and supplemented with 2-deoxyglucose (25 μM), and sodium pyruvate (10 mg/L or 4 μM oligomycin as indicated). Myoblasts were pre-incubated with 2 μM MitoSOX for 15 min prior to imaging. MitoSOX fluorescence was monitored using a Nikon Eclipse Ti confocal microscope at 37° C. on a temperature controlled stage for 30 min. MitoSOX was excited at 510 nm and the emitted signal collected with a LP 560 filter following the indicated additions.

[4] = system: mouse heart IR injury (myocardial infarction); test: In vivo mouse cardiac IR injury (LAD ligation), infarct size by triphenyltetrazolium chloride staining; settings: dimethyl succinate 8 mg/kg/min infused in combination with dimethyl malonate
Procedure: For the in vivo heart IR model an open-chest, in situ heart model was used^31,32. Male mice (8-10 weeks; Charles River Laboratories, UK) were anaesthetised with sodium pentobarbital (70 mg/kg intraperitoneally (i.p.)), intubated endotracheally and ventilated with 3 cm H2O positive-end expiratory pressure. Adequacy of anaesthesia was monitored using corneal and withdrawal reflexes. Ventilation frequency was kept at 110 breaths per minute with tidal volume between 125-150 μL. A thoracotomy was performed and the heart exposed by stripping the pericardium. A prominent branch of the left anterior descending coronary artery (LAD) was surrounded by a 7-0 Prolene suture that was then passed through a small plastic tube. Ischaemia was induced by tightening the tubing against the heart surface. To assess metabolites during IR in vivo, mice were divided into three groups: 30 min ischaemia, 30 min ischaemia plus 5 min reperfusion and 30 min sham-operation in which the suture was placed but the LAD was not occluded. At the end of each protocol tissue was removed from the at risk and peripheral areas of the heart, selected visually by comparing white versus red tissue, and snap-frozen in liquid nitrogen. […] Infarct size was assessed after 30 min of ischaemia followed by 120 min reperfusion using 2% triphenyltetrazolium chloride staining and is expressed as a percentage of the risk zone^33. […]

COC(=O)CCC(=O)OC [dimethyl succinate]
ROS production / DHE oxidation upon reperfusion [1]: significantly increased mitochondrial ROS production during reperfusion; also recorded: amplified reperfusion DHE oxidation | NAD(P)H oxidation at reperfusion [2]: suppressed | MitoSOX oxidation [3]: increased MitoSOX oxidation | cardioprotection by dimethyl malonate after adding back dimethyl succinate [4]: cardioprotection was suppressed
